The target of series [1] is BirA (biotin protein ligase) (Mycobacterium tuberculosis, UniProt I6YFP0). In kind it is binding. Particulars: direct stoichiometric titration of BirA, duplicate.
The nature of the next series: Chemical stability. Particulars: long-term storage, HPLC analysis.

Chain of BirA (biotin protein ligase) (I6YFP0 whole entry, looked up): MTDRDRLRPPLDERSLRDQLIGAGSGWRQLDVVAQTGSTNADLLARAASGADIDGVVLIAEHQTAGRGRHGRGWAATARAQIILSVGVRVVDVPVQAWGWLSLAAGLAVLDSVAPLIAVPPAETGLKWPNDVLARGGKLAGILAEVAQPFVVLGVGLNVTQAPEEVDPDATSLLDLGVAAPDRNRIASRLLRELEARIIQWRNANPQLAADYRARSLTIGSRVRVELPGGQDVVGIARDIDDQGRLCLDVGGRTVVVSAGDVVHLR

`CC(C)(C)C#Cc1nc(N)c2ncn([C@@H]3O[C@H](COS(=O)(=O)NC(=O)CCCC[C@@H]4SC[C@@H]5NC(=O)N[C@@H]54)[C@@H](O)[C@H]3O)c2n1.CCN(CC)CC` [Compound 13] gave a ΔH in series [1] of -13.5 kcal/mol. On to `CCN(CC)CC.Nc1nccc2c1ncn2[C@@H]1O[C@H](COS(=O)(=O)NC(=O)CCCC[C@@H]2SC[C@@H]3NC(=O)N[C@@H]32)[C@@H](O)[C@H]1O` [Compound 11], for which the ΔH in series [1] was -21.2 kcal/mol. With `CCN(CC)CC.Nc1ncnc2c1ncn2[C@@H]1O[C@H](CCS(=O)(=O)NC(=O)CCCC[C@@H]2SC[C@@H]3NC(=O)N[C@@H]32)[C@@H](O)[C@H]1O` [Compound 10], the chemical stability result in “Chemical stability” is “no degradation upon long-term storage”.

Values taken from article PMC3867986 (ACS medicinal chemistry letters, 2013).
